Molecular target: T1, HIV-1 Vif protein (Vif-Vif interaction) (Human immunodeficiency virus type 1 group M subtype B, UniProt P12504)
T1 construct: The vif gene also was inserted into pGEX vector for in vitro expression and isolation of GST-Vif fusion protein; The PCR-generated wild-type vif gene and its mutants were then inserted into pCITE-4a vector; made in house; host or cells: GST-Vif: E. coli BL21 (pGEX); 35S-Vif: in vitro translation from pCITE-4a (Novagen kit)
Assay type: binding
Conditions: for 35S-Vif binds with GST-Vif (%) Mean ± SD: peptide added to the Vif-Vif binding reaction, no peptide (GST pull-down) designated as 100%; for Inhibition of Vif-Vif interaction (in words): synthesized peptides added into the reaction system for Vif-Vif binding, in vitro
Procedure: The vector pGEX, with or without the vif gene, was transformed into BL21 competent cells (Novagen, Madison, Wis.). After growth at 37° C. to approximately 0.6 O.D., the expression of GST or GST-Vif proteins was induced by 0.4 mM isopropylthio-β-D-galactoside (IPTG). The bacterial cells were lyzed by adding lysing buffer (1% Triton-X-100, 0.1 mg/ml lysozyme, 2 mM EDTA, 1 mM PMSF, 2 μg/ml leupeptin, and 1 μg/ml aprotinin), followed by sonication. The sample was pelleted at 12,000 g for 10 min at 4° C., and the supernatant was applied to a glutathione-conjugated agarose bead (Sigma, St. Louis, Mo.) column. After batch binding, the matrix was washed three times, each time by the addition of 10 bed volumes of phosphorus-buffer saline (PBS). The GST or GST-Vif conjugated agarose beads were then aliquoted and stored at −20° C. Conversely, ^35S-labeled Vif or its mutant proteins were synthesized utilizing SPT3 kits (Novagen, Madison, Wis.). The protocol supplied by the manufacturer was followed. After in vitro translation, RNase A (0.2 mg/ml) was added to stop the reaction and remove tRNAs and the in vitro transcribed mRNA. The trichloroacetic acid (TCA)-insoluble radioactive amino acids were quantitated in the presence of a scintillation cocktail.
For GST pull-down assays, a GST or GST-Vif conjugated bead slurry was mixed with ^35S-labeled Vif or its mutants (50,000 cpm) in a binding buffer [150 mM NaCl, 20 mM Tris-HCl (pH 7.5), 0.1% Triton-X-100]. After binding at 4° C. for 1 hour, the mixture was centrifuged at 3,000 g for 1 min, and the beads were washed three times with binding buffer. The ^35S-labeled Vif proteins were dissociated from the beads by adding SDS-containing loading buffer and heating at 95° C. for 5 minutes. The samples were then electrophoresized in SDS-PAGE gels (15% Tris-HCl ready gel made by Bio-Rad, Hercules, Calif.). After treatment with the fixing buffer (10% acetic acid, 10% methanol) and then the Amplify (Amersham-Pharmacia, Piscataway, N.J.), the gels were dried and exposed to X-ray film or quantitatively analyzed utilizing phosphor image (Molecular Dynamics, Sunnyview, Calif.).
A Vif-Vif binding assay was similar to the GST pull-down assays, except that the GST or GST-Vif conjugated bead slurry was mixed with ^35S-labeled Vif and the test peptides or molecules in the binding buffer. The results were compared to that from the GST pull-down assay, which was designated as 100%.

T1 sequence (P12504 whole entry, the tested form may be a part): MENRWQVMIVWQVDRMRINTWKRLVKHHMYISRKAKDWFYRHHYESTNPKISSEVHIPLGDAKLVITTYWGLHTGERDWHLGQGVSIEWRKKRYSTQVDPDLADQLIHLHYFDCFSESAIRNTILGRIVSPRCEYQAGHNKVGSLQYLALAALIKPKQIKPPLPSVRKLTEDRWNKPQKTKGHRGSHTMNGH

Row | Sequence | 35S-Vif binds with GST-Vif (%) Mean ± SD | Inhibition of Vif-Vif interaction (in words)
1 | ESAIRKAILGHIVSP [Vif117-131] | 94.5 ± 11.2% | 
2 | KKIKPPLPSVTKLTE [Vif157-171] | 49.2 ± 2.5% | able to inhibit the Vif-Vif interaction
3 | KPKKIKPPLPSV [Vif155-166] | 57.1 ± 8.7% | able to inhibit the Vif-Vif interaction
4 | LPLPAPSFHRTT [VMI9] | 22.0 + 6.2% | significantly inhibit Vif-Vif interaction
5 | PPLPSVTKLTEDRWN [Vif161-175] | 70.2 ± 5.5% | able to inhibit the Vif-Vif interaction
6 | SNQGGSPLPRSV [VMI7] | 19.0 ± 2.2% | significantly inhibit Vif-Vif interaction
7 | SVSVGMKPSPRP (Synthetic peptide containing PXP motif) [VMI5, 12-mer peptide containing a PXP motif] | 36.3 ± 5.1% | 

From patent publication US7226741B2, “Multimerization of HIV-1 Vif protein as a therapeutic target” (priority 2001, dated 2007)
